Laboratory results published in US9730912B2, “Pharmaceutical compounds” (ASTEX THERAPEUTICS LIMITED, priority 2006, dated 2017).

Key:
[1] = Solid-state stability of crystalline L-lactate salt forms (storage in air / 40° C. and 75% RH, XRPD); type: physicochemical; conditions: solid L-lactate 1:1 salt of Compound (VIII); in air, or at 40° C. and 75% RH
From the text: Samples for X-ray powder diffraction (XRPD) data collection were gently ground by marble mortar and loaded into a crystallographic capillary (from Hampton Research, Quartz or Glass Type 10, 0.4 or 0.7 mm diameter). Diffraction patterns were collected at room temperature using CuKα radiation (λ=1.5418 Å) from a Rigaku rotating anode RU3HR, Osmic blue confocal optics, ¼ c goniometer and a Rigaku HTC image plate detector. 2D images were collected while spinning φ axis with a detector to crystal distance of 250 mm. Data collection was controlled by CrystalClear software and 2D images were converted to 1D plot (2θ vs. Intensity) by Datasqueeze (intensity averaged over the azimuthal angle 0≦χ≦360° for 2θ range 3-30° in 0.02° steps). In house program AstexXRPD was used for manipulation and visualisation of 1D XRPD patterns.

[2] = biological target: T1, human Hsp90α N-terminal domain (Homo sapiens, UniProt P07900); test: Isothermal titration calorimetry (ITC) binding to human Hsp90; conditions: 25 mM Tris, 100 mM NaCl, 1 mM MgCl2, 1 mM TCEP, 5% DMSO, pH 7.4
T1 construct: Cloning, expression, and purification of the Human Hsp90a N-terminal domain were performed according to published methods; made in house
Method: The ability of the compounds of the invention to bind to human Hsp90 proteins was determined using isothermal titration calorimetry.
Isothermal titration calorimetry (ITC) experiments were performed with a VP-ITC titration calorimeter (Microcal Inc., Northampton, Mass., USA). […] All solutions were filtered and degassed prior to a titration being carried out. The enthalpy change resulting from each injection of ligand was obtained through integration of the calorimetric signal. Data were analysed using Origin 7.0 (Microcal Software Inc., Northampton, Mass.). Heats of dilution were estimated using the final injections of each individual titration and subtracted before data fitting. Different ITC experimental formats were employed in order to obtain compound dissociation constants (Kd's) over a wide range of affinities. […] In this type of experiment the stoichiometry parameter (N) was locked at 1 for data fitting.

SMILES | stability of crystalline form [1] | Kd [2] [nM]
CC(C)c1cc(C(=O)N2Cc3ccc(CN4CCN(C)CC4)cc3C2)c(O)cc1O.C[C@H](O)C(=O)O [Form FL3, (2,4-dihydroxy-5-isopropyl-phenyl)-[5-(4-methyl-piperazin-1-ylmethyl)-1,3-dihydro-isoindol-2-yl]-methanone L-lactate salt] | transforms in air into form FL1 | 
CC(C)c1cc(C(=O)N2Cc3ccc(CN4CCN(C)CC4)cc3C2)c(O)cc1O.C[C@H](O)C(=O)O [Form FL1, (2,4-dihydroxy-5-isopropyl-phenyl)-[5-(4-methyl-piperazin-1-ylmethyl)-1,3-dihydro-isoindol-2-yl]-methanone L-lactate salt] | stable in air and at 40 °C and 75% RH for at least one month | 
CC(C)c1cc(C(=O)N2Cc3ccc(CN4CCN(C)CC4)cc3C2)c(O)cc1O.C[C@H](O)C(=O)O [form FL2, (2,4-dihydroxy-5-isopropyl-phenyl)-[5-(4-methyl-piperazin-1-ylmethyl)-1,3-dihydro-isoindol-2-yl]-methanone L-lactate salt] | stable in air | 
CC(C)c1cc(C(=O)N2Cc3ccc(CN4CCN(C)CC4)cc3C2)c(O)cc1O [Example 55, (2,4-dihydroxy-5-isopropyl-phenyl)-[5-(4-methyl-piperazin-1-ylmethyl)-1,3-dihydro-isoindol-2-yl]-methanone] |  | < 100
